According to the NIST ThermoML archive (doi:10.1021/je050519g):

Experiments:
[1] = xn = mol fraction of the nth substance listed; details: 293.15 K; for surface tension liquid-gas: Pendant drop shape; for mass density: 101 kPa, Liquid
[2] = 293.15 K; for surface tension liquid-gas: Pendant drop shape; for mass density: 101.33 kPa, Liquid

CC#N [acetonitrile] + CO
[1]
Details	mass density [kg/m3]	surface tension liquid-gas [mN/m]
x1 = 0.1001	788.46	23.8
x1 = 0.2011	788.04	24.73
x1 = 0.2996	787.13	25.53
x1 = 0.4997	784.82	26.85
x1 = 0.7012	782.13	27.94
x1 = 0.8009	780.75	28.42
x1 = 0.8956	779.47	28.85

CCCCCO [pentan-1-ol] + CC#N
[1]
Details	mass density [kg/m3]	surface tension liquid-gas [mN/m]
x2 = 0.1003	812.2	25.49
x2 = 0.2031	809.06	25.54
x2 = 0.3014	806.03	25.57
x2 = 0.5003	799.64	25.82
x2 = 0.7	792.42	26.64
x2 = 0.8001	788.11	27.29
x2 = 0.8993	783.38	28.11

CC#N [acetonitrile]
[2]
Details	mass density [kg/m3]	surface tension liquid-gas [mN/m]
–	778.3	29.25

CC#N [acetonitrile] + CCO
[1]
Details	mass density [kg/m3]	surface tension liquid-gas [mN/m]
x1 = 0.0999	786.57	22.81
x1 = 0.2007	785.99	23.3
x1 = 0.3039	785.05	23.85
x1 = 0.5001	783.08	25.06
x1 = 0.6994	780.89	26.51
x1 = 0.8013	779.8	27.36
x1 = 0.8996	778.91	28.26

CCO [ethanol]
[2]
Details	mass density [kg/m3]	surface tension liquid-gas [mN/m]
–	786.44	22.31
